Source: US6417212B1, “Modulators of peroxisome proliferator activated receptors” (Eli Lilly & Company, priority 1999, dated 2002)

Assays:
db/db mice = test: Evaluation of glucose levels in db/db mice; assay type: in vivo; conditions: Mus musculus, 168 h; 30 mg/kg daily oral gavage for 7 days; 100% = glucose not different from lean values; read-out: Glucose Normalisation
Experimental: After an acclimation period of 2 weeks, animals were individually identified by ear notches, weighed, and bled via the tail vein for determination of initial glucose levels. Blood was collected (100 μl) from unfasted animals by wrapping each mouse in a towel, cutting the tip of the tail with a scalpel, and milking blood from the tail into a heparinized capillary tube (Fisher) balanced on the edge of the bench. Sample was discharged into a heparinized microtainer with gel separator (VWR) and retained on ice. Plasma was obtained after centrifugation at 4° C. and glucose measured immediately. Remaining plasma was frozen until the completion of the experiment, when glucose and triglycerides were assayed in all samples. Animals were grouped based on initial glucose levels and body weights. Beginning the following morning, mice were dosed daily by oral gavage for 7 days using a 20 gauge, 1½″ curved disposable feeding needle. […] On day 7, mice were weighed and bled (tail vein) 3 hours after dosing. Twenty-four hours after the 7th dose (i.e., day 8), animals were bled again (tail vein). Samples obtained from conscious animals on days 0, 7 and 8 were assayed for glucose. After the 24 hour bleed, animals were weighed and dosed for the final time. Three hours after dosing on day 8, animals were anesthetized by inhalation of isoflurane and blood obtained via cardiac puncture (0.5-0.7 ml). Whole blood was transferred to serum separator tubes, chilled on ice and permitted to clot. Serum was obtained after centrifugation at 4° C. and frozen until analysis for compound levels. After sacrifice by cervical dislocation, the liver, heart and epididymal fat pads were excised and weighed.
The absorbance of the dye produced is linearly related to the analyte in the sample. The assays were further modified in our laboratory for use in a 96 well format. […] An additional aliquot of sample, pipetted to a third well and diluted in 200 μl water, provided a blank for each specimen. […] Sample absorbances were compared to a standard curve (100-800, 10-500, and 100-400 mg/dl for glucose, triglycerides and total cholesterol, respectively). […] All samples from an experiment were assayed at the same time to minimize inter-assay variability.

Hu apoAI transgenic mice = test: Evaluation of triglyceride and cholesterol levels in Hu apoAI transgenic mice; assay type: in vivo; conditions: for change in vivo at 30 mg/kg / inhibition in vivo at 30 mg/kg: Mus musculus, 168 h, 30 mg/kg daily oral gavage for 7 days; for change in vivo at 30 mg/kg: pooled sera, read-out: % HDLc Increase (serum, FPLC area under the curve, over vehicle); for inhibition in vivo at 30 mg/kg: serum 3 hours after dosing on day 7, read-out: % Triglyceride Decrease (serum, over mice receiving vehicle)
Experimental: After an acclimation period of 2 weeks, animals were individually identified by ear notches, weighed, and assigned to groups based on body weight. Beginning the following morning, mice were dosed daily by oral gavage for 7 days using a 20 gauge, 11⁄2 curved disposable feeding needle (Popper & Sons). […] Prior to termination on day 7, mice were weighed and dosed. Three hours after dosing, animals were anesthetized by inhalation of isoflurane (2-4%; Abbott Laboratories, Chicago, Ill.) and blood obtained via cardiac puncture (0.7-1.0 ml). Whole blood was transferred to serum separator tubes (Vacutainer SST), chilled on ice, and permitted to clot. Serum was obtained after centrifugation at 4° C. and frozen until analysis for triglycerides, total cholesterol, compound levels, and serum lipoprotein profile by fast protein liquid chromatography (FPLC) coupled to an inline detection system. After sacrifice by cervical dislocation, the liver, heart and epididymal fat pads were excised and weighed. […] The percentage decrease in triglyceride serum levels in mice receiving a compound of the invention over mice receiving vehicle are reported in Table 2. […] The absorbance of the dye produced is linearly related to the analyte in the sample. The assays were further modified in our laboratory for use in a 96 well format. […] An additional aliquot of sample, pipetted to a third well and diluted in 200 μl water, provided a blank for each specimen. […] All samples from an experiment were assayed at the same time to minimize inter-assay variability. Serum lipoproteins were separated and cholesterol quantitated with an in-line detection system. […] The change in voltage corresponding to change in cholesterol concentration was plotted vs time and the area under the curve corresponding to the elution of VLDL, LDL and HDL was calculated using Perkin Elmer Turbochrome software.

huPPARα = test: Cotransfection assay in CV-1 cells, huPPARα (GAL4 chimeric system); assay type: cell-based, human; conditions: luciferase reporter, relative to PPARα agonist reference molecule
Experimental: DNA-dependent binding (ABCD binding) was carried out using SPA technology with PPAR receptors. Tritium-labeled PPARγ and PPARα agonists were used as radioligands for generating displacement curves and IC50 values with compounds of the invention. Cotransfection assays were carried out in CV-1 cells. The reporter plasmid contained an acylCoA oxidase (AOX) PPRE and TK promoter upstream of the luciferase reporter cDNA. Appropriate PPARs and RXRα were constitutively expressed using plasmids containing the CMV promoter. For PPARα and PPARβ, interference by endogenous PPARγ in CV-1 cells was an issue. In order to eliminate such interference, a GAL4 chimeric system was used in which the DNA binding domain of the transfected PPAR was replaced by that of GAL4, and the GAL4 response element was utilized in place of the AOX PPRE. Cotransfection efficacy was determined relative to PPARα agonist and […] reference molecules. Efficacies were determined by computer fit to a concentration-response curve, or in some cases at a single high concentration of agonist (10 μM). For binding or cotransfection studies with receptors other than PPARs, similar assays were carried out using appropriate ligands, receptors, reporter constructs, etc., for that particular receptor.
These studies were carried out to evaluate the ability of compounds of the invention to bind to and/or activate various nuclear transcription factors, particularly huPPARα (“hu” indicates “human”) and huPPARγ. These studies provide in vitro data concerning efficacy and selectivity of compounds of the invention. Furthermore, binding and cotransfection data for compounds of the invention were compared with corresponding data for marketed compounds that act on either huPPARα or huPPARγ.

[1] = fenofibrate 100 mg/kg oral, 7 days, vs vehicle

Structure (SMILES)	inhibition in vivo at 30 mg/kg (db/db mice) [%]	change in vivo at 30 mg/kg (Hu apoAI transgenic mice) [%]	inhibition in vivo at 30 mg/kg (Hu apoAI transgenic mice) [%]	also measured
Cc1oc(-c2ccc(-c3ccccc3)cc2)nc1CCOc1ccc(OC(C)(C)C(=O)O)cc1 [Example 1, 2-{4-[2-(2-Biphenyl-4-yl-5-methyloxazol-4-yl)ethoxy]phenoxy}-2-methylpropionic acid]	90	160	62.2	–
Cc1oc(-c2cccc(-c3ccccc3)c2)nc1CCOc1ccc(OC(C)(C)C(=O)O)cc1 [Example 3, 2-{4-[2-(2-Biphenyl-3-yl-5-methyloxazol-4-yl)ethoxy]phenoxy}-2-methylpropionic acid]	93	69	51.2	–
Cc1oc(-c2ccc(-c3cccc4ccccc34)cc2)nc1CCOc1ccc(OC(C)(C)C(=O)O)cc1 [Example 8, 2-Methyl-2-(4-{2-[5-methyl-2-(4-naphthalen-1-ylphenyl)oxazol-4-yl]ethoxy}phenoxy)propionic acid]	19	41	31.8	–
Cc1oc(-c2ccc(-c3ccccc3C(F)(F)F)cc2)nc1CCOc1ccc(OC(C)(C)C(=O)O)cc1 [Example 12, 2-Methyl-2-(4-{2-[5-methyl-2-(2′-trifluoromethyl-biphenyl-4-yl)-oxazol-4-yl]-ethoxy}-phenoxy)propionic acid]	44	29	37.6	–
Cc1oc(-c2cccc(-c3ccccc3)c2)nc1CCOc1cccc(OC(C)(C)C(=O)O)c1 [Example 22, 2-{3-[2-(2-Biphenyl-3-yl-5-methyloxazol-4-yl)ethoxy]phenoxy}-2-methylpropionic acid]	102	191	73.6	–
Cc1cc(OCCc2nc(-c3ccc(-c4ccccc4)cc3)oc2C)ccc1OC(C)(C)C(=O)O [Example 24, 2-{4-[2-(2-Biphenyl-4-yl-5-methyloxazol-4-yl)-ethoxy]-2-methylphenoxy}-2-methylpropionic acid]	55	72	62.3	–
CCCCc1cc(OC(C)(C)C(=O)O)ccc1OCCc1nc(-c2ccc(-c3ccccc3)cc2)oc1C [Example 31, 2-{4-[2-(2-Biphenyl-4-yl-5-methyloxazol-4-yl)ethoxy]-3-butylphenoxy}-2-methylpropionic acid]	89	217	66.7	–
Cc1oc(-c2ccc(-c3ccccc3)cc2)nc1CCOc1ccc(OC(C)(C)C(=O)O)c(-c2ccccc2)c1 [Example 38, 2-{5-[2-(2-Biphenyl-4-yl-5-methyloxazol-4-yl)-ethoxy]-biphenyl-2-yloxy}-2-methyl-propionic acid]	59	34	53.3	–
Cc1oc(-c2ccc(-c3ccccc3)cc2)nc1CCOc1ccc(OC(C)(C)C(=O)O)c2ccccc12 [Example 48, 2-{4-[2-(2-Biphenyl-4-yl-5-methyloxazol-4-yl)ethoxy]naphthalen-1-yloxy}-2-methyl propionic acid]	31	89	43.7	–
Cc1oc(-c2cccc(-c3ccccc3)c2)nc1CCOc1ccc(OC(C)(C)C(=O)O)c2ccccc12 [Example 49, 2-{4-[2-(2-Biphenyl-3-yl-5-methyloxazol-4-yl)ethoxy]naphthalen-1-yloxy}-2-methyl propionic acid]	39	34	48.7	–
Cc1oc(-c2ccc(-c3ccccc3)cc2)nc1CCOc1ccc(OC(C)(C)C(=O)O)c2c1CCCC2 [Example 50, 2-{4-[2-(2-Biphenyl-4-yl-5-methyloxazol-4-yl)-ethoxy]-5,6,7,8-tetrahydronaphthalen-1-yloxy}-2-methyl propionic acid]	42	95	53.9	–
Cc1oc(-c2cccc(-c3ccccc3)c2)nc1CCOc1ccc(OC(C)(C)C(=O)O)c2c1CCCC2 [Example 51, 2-{4-[2-(2-Biphenyl-3-yl-5-methyloxazol-4-yl)-ethoxy]-5,6,7,8-tetrahydronaphthalen-1-yloxy}-2-methyl propionic acid]	31	53	41.6	–
CCCc1cc(OCCc2nc(-c3ccc(-c4ccccc4)cc3)oc2C)ccc1OC(C)(C)C(=O)O [Example 60, 2-{4-[2-(2-Biphenyl-4-yl-5-methyloxazol-4-yl)-ethyloxy]-2-propylphenoxy}-2-methyl-propionic acid]	68	38	40.8	–
CCCc1cc(OCCc2nc(-c3ccc(-c4ccccc4)cc3)oc2C)ccc1OCC(=O)O [Example 62, {4-[2-(2-Biphenyl-4-yl-5-methyl-oxazol-4-yl)-ethoxy]-2-propyl-phenoxy}-acetic acid]	36	56	45.5	–
Cc1c(C)c2c(c(C)c1O)CCC(C)(COc1ccc(CC3SC(=O)NC3=O)cc1)O2 (stereo not shown) [Troglitazone, reference compound]	–	–	–	huPPARα CTF Efficacy (huPPARα): 0%
CC(C)OC(=O)C(C)(C)Oc1ccc(C(=O)c2ccc(Cl)cc2)cc1 [fenofibrate, reference compound]	–	–	–	mean elevation of total serum cholesterol (Hu apoAI transgenic mice; [1]): 41%; mean percent increase of HDLc (Hu apoAI transgenic mice; [1]): 48%; mean reduction of triglycerides (Hu apoAI transgenic mice; [1]): 37%; HDLc peak area (FPLC) (Hu apoAI transgenic mice; fenofibrate 100 mg/kg oral, 7 days, vehicle 47-62 v-sec): 68-96 v-sec; average triglycerides values (Hu apoAI transgenic mice; fenofibrate 100 mg/kg oral, 7 days, vehicle 60-80 mg/dl): 33 to 58 mg/dL; average total serum cholesterol values (Hu apoAI transgenic mice; fenofibrate 100 mg/kg oral, 7 days, vehicle 148-180 mg/dl): 190 to 280 mg/dL
